Here are results for one substance from US20180280480A1, “COMPOSITIONS AND PEPTIDES HAVING DUAL GLP-1R AND GLP-2R AGONIST ACTIVITY” (priority 2014, published 2018).

Marks after values point to notes of the source that are not given here.

Experiment [1] deals with Diet Induced Obese (DIO) Sprague-Dawley Rats. As to the kind of experiment: Body weight and whole body fat mass in DIO Sprague-Dawley rats. The experiment is classed as in vivo. The following applies: for Body weight: mean ± S.E.M.; for Whole body fat mass: EchoMRI. Here is the method:
(§1) Thirty (30) male Sprague-Dawley rats (7 weeks of age) were purchased from Taconic (Denmark) and transferred to the Gubra animal unit. During the acclimatization period, the rats were housed two per cage under a 12:12 light dark cycle (lights on from 04.00-16.00 h) at controlled temperature conditions (22±1° C.; 50±10% relative humidity). Throughout the study the rats had ad libitum access to a two choice diet—regular Altromin 1324 rodent chow (Brogaarden, Denmark) and a paste made from Chocolate spread (Nutella, Ferrero Italy), peanut butter and powdered regular Altromin 1324 rodent chow (Brogaarden, Denmark). The animals were kept on the diet for 65 weeks before experimentation. Animals were switched to single housing during the entire study period (day −6 to 25).
The animals were randomized into three study groups (n=10 per group) based on body weight recorded on day −1 to participate in one of the following groups: Group 1: Vehicle, SC, BID. Group 2: SEQ ID NO 6, 82 nmol/kg (day 2-7), 164 nmol/kg (day 8-14) and 328 nmol/kg (day 15-25), SC, BID. […] Dosing took place in the morning (between 06.00 and 08.00 h) and prior to lights out in the afternoon (between 13.30 and 14.00 h). Doses were administered subcutaneously with a dose volume 1 ml/kg. All rats were handled prior to experimentation to acclimatize the animals to handling and procedures. Body weight was measured from day −3 to termination on day 25. Total body fat mass was analyzed before study start (day −1) and before termination (study day 25) by non-invasive EchoMRI-900 (EchoMRI, USA). On day 23 of the study, rats were subjected to an oral glucose tolerance test (OGTT). Animals were mildly fasted as all food was removed 4 hours prior to the oral glucose load. Vehicle and compounds were administered subcutaneously (SC) 2 hours prior to the OGTT. At t=0 rats received an oral glucose load (2 g/kg; 4 ml/kg; […], Fresenius Kabi, Sweden). Glucose was given as gavage via a gastrically-placed tube connected to a syringe ensuring accurate dosing. Blood glucose was measured from tail vein blood before (t=−120 and 0 min, baseline) and after glucose administration (t=15, 30, 60 and 120 min). Blood samples was collected into 10 μl heparinized glass capillary tubes and immediately suspended in buffer (0.5 ml of glucose/lactate system solution (EKF-diagnostics, Germany) and analyzed for glucose on the test day using a BIOSEN c-Line glucose meter (EKF-diagnostics, Germany) according to manufacturer's instructions. On study day 25, the rats were terminated and the GI tract was removed. Intestines were flushed with saline, weighed and then fixated in 4% PFA for determination of small and large intestinal volume by stereological methods as described by Hansen et al. 2013, Am J Transl Res 5(3): 347-58).

The target of a further experiment is T1, GLP-2R (Homo sapiens, UniProt O95838).
T1 sequence (O95838 1-553): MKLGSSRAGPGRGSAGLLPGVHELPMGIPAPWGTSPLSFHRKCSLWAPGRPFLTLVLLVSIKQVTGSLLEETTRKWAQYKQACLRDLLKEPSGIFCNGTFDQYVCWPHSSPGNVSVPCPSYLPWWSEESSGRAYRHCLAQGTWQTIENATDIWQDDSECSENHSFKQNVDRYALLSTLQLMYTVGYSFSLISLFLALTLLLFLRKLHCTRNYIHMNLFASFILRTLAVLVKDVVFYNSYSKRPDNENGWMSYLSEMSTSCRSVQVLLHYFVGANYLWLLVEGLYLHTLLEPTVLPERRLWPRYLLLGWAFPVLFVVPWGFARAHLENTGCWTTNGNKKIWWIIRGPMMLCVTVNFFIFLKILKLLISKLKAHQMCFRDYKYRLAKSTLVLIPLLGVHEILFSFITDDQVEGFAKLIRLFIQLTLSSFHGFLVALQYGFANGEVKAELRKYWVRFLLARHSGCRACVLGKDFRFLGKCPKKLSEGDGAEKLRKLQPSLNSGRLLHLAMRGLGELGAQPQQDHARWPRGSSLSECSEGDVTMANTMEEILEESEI
As to the kind of experiment: GLP2 receptor efficacy assay (in vitro functional screen, Euroscreen or DiscoveRx). The conditions noted are these: Table 1.

The subject of a further experiment is C57BL/6J mice. Put plainly: GLP1R-GLP2R dual agonist compound study: gut wet weight. It is filed as in vivo. From the text: On study day 8, the mice were terminated and the GI tract was removed for determination of the gut wet weight. The gut wet weight results are listed below in Table 12.
For experiment [2], the system named is Diet Induced Obese (DIO) Sprague-Dawley Rats. As to the kind of experiment: Small and large intestinal volume (stereology) in DIO Sprague-Dawley rats. It is filed as in vivo. The method, then: as §1
The animals were randomized into three study groups (n=10 per group) based on body weight recorded on day −1 to participate in one of the following groups: Group 1: Vehicle, SC, BID. Group 2: SEQ ID NO 6, 82 nmol/kg (day 2-7), 164 nmol/kg (day 8-14) and 328 nmol/kg (day 15-25), SC, BID. […] Body weight was measured from day −3 to termination on day 25. Total body fat mass was analyzed before study start (day −1) and before termination (study day 25) by non-invasive EchoMRI-900 (EchoMRI, USA). […] Blood glucose was measured from tail vein blood before (t=−120 and 0 min, baseline) and after glucose administration (t=15, 30, 60 and 120 min). Blood samples was collected into 10 μl heparinized glass capillary tubes and immediately suspended in buffer (0.5 ml of glucose/lactate system solution (EKF-diagnostics, Germany) and analyzed for glucose on the test day using a BIOSEN c-Line glucose meter (EKF-diagnostics, Germany) according to manufacturer's instructions. On study day 25, the rats were terminated and the GI tract was removed. Intestines were flushed with saline, weighed and then fixated in 4% PFA for determination of small and large intestinal volume by stereological methods as described by Hansen et al. 2013, Am J Transl Res 5(3): 347-58).

[3] abbreviates: Day 25, 328 nmol/kg (escalated 82, 164, 328 nmol/kg SC BID).
Where [4] appears, read: Day 25, 328 nmol/kg, mean ± S.E.M.

With “R^1-HGDGSFTSELSTYLDALAARDFIAWLIQTKITDR^2 [SEQ ID NO 6]”, the Body weight in experiment [1] (Day 0 (baseline), 328 nmol/kg group (escalated 82, 164, 328 nmol/kg SC BID)) stood at 962.7 ± 27.8 g. In addition, in experiment [1] (setting [3]), the “Whole body fat mass” value was found to be 292.2 ± 25.4 g and the Body weight is 803.9 ± 35.5 g. Also, the “Whole body fat mass” value in experiment [1] (Day −1 (baseline), 328 nmol/kg group (escalated 82, 164, 328 nmol/kg SC BID)) is recorded as 400.3 ± 18.3 g. Also, on GLP-2R, the “ranking of GLP-2 receptor potency” value was “most potent GLP-2 receptor agonist”. The Gut wet weight in the experiment with C57BL/6J mice (Day 8, 3.0 mg/kg BID SC, mean ± S.E.M.) was found to be 3.8 ± 0.3 g. Besides, the “gut wet weight compared to vehicle and teduglutide” value in the experiment on C57BL/6J mice (dosed twice daily for 8 days) is “significantly increased the gut wet weight”. Moreover, in experiment [2] (setting [4]), the Large intestine volume stood at 2.64 ± 0.17 cm^3 and the Small intestine volume is reported as 8.50 ± 0.62*** cm^3. Moreover, the “effect on small intestine volume” value in experiment [2] (treatment for 25 days, stereology) is on record as “striking increase in small intestine volume”.
